Source: ChEMBL document CHEMBL1139118, “A novel, non-substrate-based series of glycine type 1 transporter inhibitors derived from high-throughput screening” (Bioorg Med Chem Lett, 2007)

Key:
[1] = target: CYP2D6 (Homo sapiens, UniProt P10635); assay: Inhibition of human recombinant CYP2D6 at 1.5 uM; type: ADME
[2] = target: 5-hydroxytryptamine receptor 1B (Homo sapiens, UniProt P28222); assay: Displacement of [3H]5-hydroxytrytamine from human 5HT1B receptor expressed in HEK293 cells; type: cell-based
[3] = target: T1, Sodium- and chloride-dependent glycine transporter 1 (Homo sapiens, UniProt P48067); assay: Displacement of [3H]NPTS from human GlyT1C expressed in HEK293 cells; type: cell-based
T1 sequence (P48067 whole entry): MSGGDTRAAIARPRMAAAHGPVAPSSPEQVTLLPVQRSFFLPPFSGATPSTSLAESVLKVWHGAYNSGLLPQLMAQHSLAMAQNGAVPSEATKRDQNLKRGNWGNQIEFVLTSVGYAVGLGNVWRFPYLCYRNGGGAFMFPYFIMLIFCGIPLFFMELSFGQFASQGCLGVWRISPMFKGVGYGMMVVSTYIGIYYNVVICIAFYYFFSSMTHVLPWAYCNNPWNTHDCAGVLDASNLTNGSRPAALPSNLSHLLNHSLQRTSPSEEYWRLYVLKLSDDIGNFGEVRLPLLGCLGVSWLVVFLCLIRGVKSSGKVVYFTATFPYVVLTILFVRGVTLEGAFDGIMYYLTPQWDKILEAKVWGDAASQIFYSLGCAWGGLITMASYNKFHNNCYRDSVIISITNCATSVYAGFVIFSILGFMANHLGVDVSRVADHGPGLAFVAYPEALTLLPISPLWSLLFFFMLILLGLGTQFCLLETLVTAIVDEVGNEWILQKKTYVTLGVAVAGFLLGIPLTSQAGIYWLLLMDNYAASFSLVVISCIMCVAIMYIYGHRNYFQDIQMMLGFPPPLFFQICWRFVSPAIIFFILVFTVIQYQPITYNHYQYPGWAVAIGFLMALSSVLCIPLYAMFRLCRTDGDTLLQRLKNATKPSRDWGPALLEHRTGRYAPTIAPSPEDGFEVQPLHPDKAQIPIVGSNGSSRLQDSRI

[4] = target: Voltage-gated inwardly rectifying potassium channel KCNH2 (Homo sapiens, UniProt Q12809); assay: Displacement of [3H]dofetilide from human ERG channel expressed in HEK293 cells
[5] = Metabolic stability in human liver microsomes assessed as half life; type: ADME, Microsome
[6] = target: T2, Sodium- and chloride-dependent glycine transporter 2 (Homo sapiens, UniProt Q9Y345); assay: Inhibition of [3H]glycine uptake at human GlyT2 expressed in HEK293 cells; type: cell-based
T2 sequence (Q9Y345 whole entry): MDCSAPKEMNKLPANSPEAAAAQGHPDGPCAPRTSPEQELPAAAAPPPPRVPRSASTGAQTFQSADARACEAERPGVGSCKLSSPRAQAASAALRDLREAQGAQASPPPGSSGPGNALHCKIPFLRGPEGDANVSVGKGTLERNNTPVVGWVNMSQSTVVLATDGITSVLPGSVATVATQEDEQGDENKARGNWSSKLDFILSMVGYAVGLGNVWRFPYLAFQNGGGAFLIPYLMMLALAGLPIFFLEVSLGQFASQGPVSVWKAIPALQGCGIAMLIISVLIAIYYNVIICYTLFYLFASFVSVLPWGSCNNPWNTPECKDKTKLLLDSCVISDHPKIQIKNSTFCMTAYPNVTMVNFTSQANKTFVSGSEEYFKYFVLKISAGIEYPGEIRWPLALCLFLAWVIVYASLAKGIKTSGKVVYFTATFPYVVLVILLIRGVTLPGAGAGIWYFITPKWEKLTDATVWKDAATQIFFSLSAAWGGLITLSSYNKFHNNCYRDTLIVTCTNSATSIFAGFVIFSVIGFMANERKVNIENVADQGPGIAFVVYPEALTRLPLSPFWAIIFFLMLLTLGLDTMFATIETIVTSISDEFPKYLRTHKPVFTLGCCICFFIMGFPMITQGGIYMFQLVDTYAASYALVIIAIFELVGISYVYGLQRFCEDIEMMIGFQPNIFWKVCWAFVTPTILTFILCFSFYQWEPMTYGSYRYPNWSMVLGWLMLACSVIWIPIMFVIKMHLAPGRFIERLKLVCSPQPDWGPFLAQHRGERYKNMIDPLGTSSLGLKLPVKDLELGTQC

Sequence of CYP2D6 (P10635 whole entry): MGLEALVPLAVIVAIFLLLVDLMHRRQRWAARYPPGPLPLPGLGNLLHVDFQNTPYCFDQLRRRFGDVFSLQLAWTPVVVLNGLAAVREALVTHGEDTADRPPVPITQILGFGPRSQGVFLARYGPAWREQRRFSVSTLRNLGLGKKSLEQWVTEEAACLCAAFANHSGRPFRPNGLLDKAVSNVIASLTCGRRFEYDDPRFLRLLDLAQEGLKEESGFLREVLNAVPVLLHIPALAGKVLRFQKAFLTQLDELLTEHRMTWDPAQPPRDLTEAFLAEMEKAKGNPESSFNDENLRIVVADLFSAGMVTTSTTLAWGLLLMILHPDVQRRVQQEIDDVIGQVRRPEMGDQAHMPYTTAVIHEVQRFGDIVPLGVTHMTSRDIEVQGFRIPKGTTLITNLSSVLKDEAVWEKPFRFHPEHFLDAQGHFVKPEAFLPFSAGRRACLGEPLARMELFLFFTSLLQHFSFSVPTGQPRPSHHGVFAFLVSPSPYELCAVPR
Sequence of Voltage-gated inwardly rectifying potassium channel KCNH2 (Q12809 whole entry): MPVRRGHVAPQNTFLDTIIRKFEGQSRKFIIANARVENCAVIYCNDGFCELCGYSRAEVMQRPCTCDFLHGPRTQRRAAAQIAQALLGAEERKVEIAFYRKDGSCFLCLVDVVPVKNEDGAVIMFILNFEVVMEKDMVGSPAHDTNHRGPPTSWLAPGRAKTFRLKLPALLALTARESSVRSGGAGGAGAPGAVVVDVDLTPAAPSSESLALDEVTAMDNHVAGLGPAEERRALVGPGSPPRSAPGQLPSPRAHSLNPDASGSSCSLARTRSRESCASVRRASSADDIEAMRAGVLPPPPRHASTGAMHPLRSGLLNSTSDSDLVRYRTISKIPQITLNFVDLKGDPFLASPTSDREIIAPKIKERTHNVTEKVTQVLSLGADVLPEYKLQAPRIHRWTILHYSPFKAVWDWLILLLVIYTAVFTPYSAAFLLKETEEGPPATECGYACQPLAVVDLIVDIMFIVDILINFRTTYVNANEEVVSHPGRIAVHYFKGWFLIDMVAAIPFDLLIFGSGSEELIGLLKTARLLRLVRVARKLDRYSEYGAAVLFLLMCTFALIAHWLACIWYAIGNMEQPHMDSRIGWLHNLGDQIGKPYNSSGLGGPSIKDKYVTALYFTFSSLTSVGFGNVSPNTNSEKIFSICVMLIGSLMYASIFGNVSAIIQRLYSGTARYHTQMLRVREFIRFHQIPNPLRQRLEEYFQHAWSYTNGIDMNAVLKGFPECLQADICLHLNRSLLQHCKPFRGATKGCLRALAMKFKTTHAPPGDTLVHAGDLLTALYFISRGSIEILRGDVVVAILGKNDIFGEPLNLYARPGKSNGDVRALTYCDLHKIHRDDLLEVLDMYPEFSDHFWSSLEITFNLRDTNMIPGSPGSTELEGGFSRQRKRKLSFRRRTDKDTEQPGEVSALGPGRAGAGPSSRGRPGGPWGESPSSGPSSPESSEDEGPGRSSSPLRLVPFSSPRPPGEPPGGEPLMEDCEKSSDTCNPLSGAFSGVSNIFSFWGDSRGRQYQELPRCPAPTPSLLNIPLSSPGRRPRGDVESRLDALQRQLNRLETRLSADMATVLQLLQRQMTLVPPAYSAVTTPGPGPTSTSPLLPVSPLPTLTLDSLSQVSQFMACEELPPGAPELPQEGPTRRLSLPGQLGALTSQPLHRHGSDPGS
Sequence of 5-hydroxytryptamine receptor 1B (P28222 whole entry): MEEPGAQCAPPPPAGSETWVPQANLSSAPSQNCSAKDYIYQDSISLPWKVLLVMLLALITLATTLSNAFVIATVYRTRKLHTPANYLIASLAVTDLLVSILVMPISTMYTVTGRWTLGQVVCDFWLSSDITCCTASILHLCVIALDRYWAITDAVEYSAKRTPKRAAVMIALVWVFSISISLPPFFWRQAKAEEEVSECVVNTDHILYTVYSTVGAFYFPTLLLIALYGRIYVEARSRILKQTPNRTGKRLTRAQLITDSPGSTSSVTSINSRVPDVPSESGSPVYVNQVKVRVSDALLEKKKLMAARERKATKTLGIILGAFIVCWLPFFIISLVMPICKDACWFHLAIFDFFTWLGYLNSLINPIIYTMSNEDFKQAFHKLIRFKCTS

| Compound | inhibition at 1.5 µM [1] [%] | Ki [2] [nM] | IC50 [3] [nM] | half-life [5] [min] | Ki [3] [nM] | IC50 [6] [nM] | Ki [4] [nM] |
| --- | --- | --- | --- | --- | --- | --- | --- |
| OCC1(N2CCN(C3CCc4ccc(OCc5noc(-c6ccccc6F)n5)cc43)CC2)CCCC1 (configuration not stated) | 85 |  |  | 14 | 61.4 | 31.5 |  |
| OCC1CCCN(CCCC2CCCc3ccc(OCc4noc(-c5ccccc5F)n4)cc32)C1 (configuration not stated) | 43 |  |  | 17 | 10.2 | 385 | 1300 |
| CCN(Cc1cccc(OCc2noc(-c3ccccc3F)n2)c1)C1CCN(C2CC(C)C(C)C2)C1 (configuration not stated) | 84 |  |  | 26 | 85.3 | 857 | 222 |
| OCC1CCCN(CCCC2CCCc3ccc(OCc4noc(-c5ccc(Cl)cc5)n4)cc32)C1 (stereo in doubt; 8) | 96 | > 1000 |  | 22 | 15.9 | 319 | 271 |
| OCC1CCCN(CCCC2CCCc3ccc(OCc4noc(-c5ccc(Cl)cc5)n4)cc32)C1 (stereo in doubt; 8B) |  |  | 24 |  |  |  | 214 |
| CC(C)N1CCN(C2CCc3ccc(OCc4noc(-c5ccc(Cl)cc5)n4)cc32)CC1 (configuration not stated) | 43 | 31 |  | 13 | 394 |  | 98.1 |
| OCC1CCCN(CCCC2CCCc3ccc(OCc4noc(-c5ccc(Cl)cc5)n4)cc32)C1 (stereo in doubt; 8D) |  |  | 26 |  |  |  | 206 |

Continued, in another order:

| inhibition at 1.5 µM [1] [%] | Ki [2] [nM] | IC50 [3] [nM] | half-life [5] [min] | Ki [3] [nM] | IC50 [6] [nM] | Compound | Ki [4] [nM] |
| --- | --- | --- | --- | --- | --- | --- | --- |
| 47 | 1490 |  |  |  |  | OCC1(N2CCN(C3CCc4ccc(OCc5noc(-c6ccc(Cl)cc6)n5)cc43)CC2)CCCC1 (configuration not stated) |  |
|  |  | 38 |  |  |  | OCC1CCCN(CCCC2CCCc3ccc(OCc4noc(-c5ccc(Cl)cc5)n4)cc32)C1 (stereo in doubt; 8A) | 381 |
| 75 | < 1 |  | 22 | 500 |  | CN1CCN(c2cccc3ccc(OCc4noc(-c5ccc(Cl)cc5)n4)cc23)CC1 |  |
| 30 |  |  | 24 | 11 | 401 | OCC1CCCN(CCCC2CCCc3ccc(OCc4ccc(-c5ccccc5F)cn4)cc32)C1 (configuration not stated) | 410 |
| 29 | 414 |  | 7 | 134 |  | CC1CC(N2CCN(C3CCc4ccc(OCc5noc(-c6ccc(Cl)cc6)n5)cc43)CC2)CC1C (configuration not stated) |  |
|  |  | 31 |  |  |  | OCC1CCCN(CCCC2CCCc3ccc(OCc4noc(-c5ccc(Cl)cc5)n4)cc32)C1 (stereo in doubt; 8C) | 219 |
| 94 |  |  | 12 | 66.8 | 531 | Fc1ccccc1-c1nc(COc2ccc3c(c2)C(N2CCN(C4CCCC4)CC2)CC3)no1 (configuration not stated) |  |
| 70 | > 300 |  | 12 | 108 |  | OCC1(NCCCC2CCc3ccc(OCc4noc(-c5ccc(Cl)cc5)n4)cc32)CCCC1 (configuration not stated) | 525 |
